Assays:
dopamine D-2 receptor [1] = molecular target: T1, dopamine D-2 receptor (Rattus norvegicus, UniProt P61169); test: Blocking of [3H](S)-sulpiride binding to rat striatal membranes; details: radioligand [3H](S)-sulpiride at 5.0 nM; rat striatal membrane preparation; 30 min at 37 °C
T1 construct: 90 µL of the striatal membrane preparation; from tissue; host or cells: rat striatum (membrane homogenate)
Protocol: (§1) The procedure, described by de […]., and Beart P.M., Eur. J. Pharmacol. 106 133-139 (1984), is as follows: Male Sprague-Dawley rats (150-200 g) were killed by decapitation and their brains quickly removed and dissected on ice. Striata were dissected and homogenized in 40 vol of ice-cold 50 mM Tris-HCl buffer (pH 7.4) containing 120 mM sodium chloride, 5 mM potassium chloride, 2 mM calcium chloride, and 1 mM magnesium chloride using a Brinkman Polytron. The suspension was centrifuged at 30,000 x g for 10 min at 4 °C, and the pellet was resuspended in 40 vol of fresh buffer. The suspension was incubated at 37 °C for 10 min, centrifuged again at 30,000 x g for 10 min at 4 °C, and the final pellet was resuspended with the polytron in 200 vol of ice cold buffer. […] Tubes were incubated for 30 min at 37 °C, poured over Whatman GF/B filters under vacuum, and the filters were rinsed three times with 4 mL of ice cold buffer.

dopamine D-2 receptor [2] = molecular target: T1, dopamine D-2 receptor; test: Blocking of [3H]spiperone binding to rat striatal membranes; details: radioligand [3H]spiperone at 0.5 nM; rat striatal membrane preparation; 30 min at 37 °C
Protocol: as §1

T1 sequence (P61169 whole entry): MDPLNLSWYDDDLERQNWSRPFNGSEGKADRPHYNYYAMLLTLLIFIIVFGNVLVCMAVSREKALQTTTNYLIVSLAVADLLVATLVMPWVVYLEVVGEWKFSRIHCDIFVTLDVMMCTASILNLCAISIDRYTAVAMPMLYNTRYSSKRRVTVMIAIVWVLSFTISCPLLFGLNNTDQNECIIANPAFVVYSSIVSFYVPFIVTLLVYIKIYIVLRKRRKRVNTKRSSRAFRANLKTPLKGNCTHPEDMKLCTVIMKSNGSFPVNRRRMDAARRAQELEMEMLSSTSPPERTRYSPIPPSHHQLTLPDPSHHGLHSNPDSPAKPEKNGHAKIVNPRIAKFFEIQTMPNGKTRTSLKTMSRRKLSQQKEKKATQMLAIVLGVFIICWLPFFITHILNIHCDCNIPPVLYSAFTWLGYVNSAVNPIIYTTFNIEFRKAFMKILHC

CCN1CCC[C@@H]1CNC(=O)c1cc(I)ccc1OC
IC50 (dopamine D-2 receptor [1]): 145 ± 5 nM
IC50 (dopamine D-2 receptor [2]): 560 ± 200 nM

CCN1CCC[C@H]1CNC(=O)c1cc(I)ccc1OC
IC50 (dopamine D-2 receptor [1]): 3.3 ± 0.9 nM
IC50 (dopamine D-2 receptor [2]): 16.4 ± 4.9 nM

Reference: EP0320630A1, “Enantiometric iodobenzamides” (THE VANDERBILT UNIVERSITY, priority 1987, dated 1989)
